Legend:
Type in all cases: cell-based
H2052 cells = experiment: Cell proliferation and viability assay (CPA) in H2052 cells; details: for IC50: Homo sapiens, NCI-H2052, read-out: CPA H2052 IC50 Ave
Protocol: Compound potency and efficacy in inhibiting cell proliferation and viability was assessed in multiple cell lines. For example, NCI-H226 cells (ATCC #CRL-5826) were seeded at 2000 cells in 200 μL medium per well of a 96-well plate (Corning #3610) and incubated at 37° C. for 24 hours, then treated with serial diluted compounds for up to 6 d. Viable cells were measured by CellTiter-Glo 2.0 Cell Viability Assay (Promega #G9243), and the luminescence signal was read using an EnSight Multimode plate reader (PerkinElmer, model 9MLDHH34000000, integration time 100 ms) with Kaleido 3.0. software. For data analysis, dose-dependent curves were plotted as “inhibition” (% of DMSO-treated control wells), and were fitted by four-parametric model in GraphPad Prism to obtain IC50 values.
Alternatively, cells were plated at 2000 cells in 200 μL medium per well of a 96-well plate (Corning #3585) overnight, treated with compound for 7 days, cell density images taken by Incycte S3 live cell analysis instrument (Sartorius) every 24 hours at the same time. Images were analyzed by Incucyte's AI-driven software to get C “% confluence” for every image. Dose-dependent curves were plotted as “% inhibition” (% o of DMSO-treated control wells) and were fitted by four-parametric model in GraphPad Prism to obtain IC50 values.

NCI-H226 cells = experiment: Cell proliferation and viability assay (CPA) in NCI-H226 cells; details: up to 6 d; for IC50: Homo sapiens, 144 h, read-out: CPA NCI-H226 IC50 Ave
Protocol: Compound potency and efficacy in inhibiting cell proliferation and viability was assessed in multiple cell lines. For example, NCI-H226 cells (ATCC #CRL-5826) were seeded at 2000 cells in 200 μL medium per well of a 96-well plate (Corning #3610) and incubated at 37° C. for 24 hours, then treated with serial diluted compounds for up to 6 d. Viable cells were measured by CellTiter-Glo 2.0 Cell Viability Assay (Promega #G9243), and the luminescence signal was read using an EnSight Multimode plate reader (PerkinElmer, model 9MLDHH34000000, integration time 100 ms) with Kaleido 3.0. software. For data analysis, dose-dependent curves were plotted as “inhibition” (% of DMSO-treated control wells), and were fitted by four-parametric model in GraphPad Prism to obtain IC50 values. […]

TEAD1 [1] = experiment: MCF-7 TEAD1-luciferase reporter assay (MCF7-TEAD-Luc); details: MCF7 cells, overnight; for IC50: Homo sapiens; for TEAD1-Luc MCF7: Max Inhibition: % of DMSO-treated control
Summary of the method: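 MCF7 cells with a TEAD luciferase reporter were seeded at 10,000 per well, grown 24 hours at 37° C, then treated overnight with serially diluted compound. Luciferase signal was normalized as % inhibition relative to DMSO controls, and IC50 came from a four-parameter fit.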

TEAD2 = TEAD2 (Homo sapiens, UniProt Q15562); experiment: Palmitoylation assay, TEAD2 (HEK293T cells); parameters: unspecified tag; expressed in transfected cells; host or cells: HEK293T; details: 3 um compound, 24 hours
TEAD2, sequence (Q15562 whole entry): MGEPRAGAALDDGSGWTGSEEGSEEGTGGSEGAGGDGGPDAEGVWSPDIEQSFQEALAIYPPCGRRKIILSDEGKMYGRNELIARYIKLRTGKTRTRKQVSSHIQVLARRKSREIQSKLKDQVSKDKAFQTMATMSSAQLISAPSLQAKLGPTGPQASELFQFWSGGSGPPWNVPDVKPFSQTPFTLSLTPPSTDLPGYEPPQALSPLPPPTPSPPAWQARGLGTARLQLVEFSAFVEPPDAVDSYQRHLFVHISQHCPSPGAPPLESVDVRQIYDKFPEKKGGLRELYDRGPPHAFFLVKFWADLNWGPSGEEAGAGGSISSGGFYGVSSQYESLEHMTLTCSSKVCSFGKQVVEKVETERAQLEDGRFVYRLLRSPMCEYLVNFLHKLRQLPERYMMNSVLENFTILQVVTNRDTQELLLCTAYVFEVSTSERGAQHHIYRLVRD
Protocol: (§1) Tagged TEAD constructs were cloned in pTriEx-6 (Novagen #71559) and transiently transfected into HEK293T cells for 24 hours. Then cells were treated with compounds for 24 hours, or treated with compounds plus 25 μM alkyne palmitic acid (for palmitoylation assay), and cell pellets were collected. Cells were lysed in lysis Buffer (100 mM Tris-HCl, 150 mM NaCl, 1% Triton, 5 mg/mL protease inhibitor cocktail), centrifuged for 10 min at 15000 g, TEAD proteins were pulled down and subjected to click-chemistry with TAMRA azide (Click Chemistry Tools #AZ109) to label compound-modified protein. Protein bands were separated by SDS-gel electrophoresis, target bands at expected molecular size were visualized using BioRad ChemiDoc Imaging system, band intensities were quantified by Image Studio.

TEAD1 [2] = experiment: Palmitoylation assay, TEAD1 (HEK293T cells); details: 3 um compound, 24 hours
Protocol: as §1

TEAD3 = TEAD3 (Homo sapiens, UniProt Q99594); experiment: Palmitoylation assay, TEAD3 (HEK293T cells); parameters: unspecified tag; expressed in transfected cells; host or cells: HEK293T; details: 3 um compound, 24 hours
TEAD3, sequence (Q99594 whole entry): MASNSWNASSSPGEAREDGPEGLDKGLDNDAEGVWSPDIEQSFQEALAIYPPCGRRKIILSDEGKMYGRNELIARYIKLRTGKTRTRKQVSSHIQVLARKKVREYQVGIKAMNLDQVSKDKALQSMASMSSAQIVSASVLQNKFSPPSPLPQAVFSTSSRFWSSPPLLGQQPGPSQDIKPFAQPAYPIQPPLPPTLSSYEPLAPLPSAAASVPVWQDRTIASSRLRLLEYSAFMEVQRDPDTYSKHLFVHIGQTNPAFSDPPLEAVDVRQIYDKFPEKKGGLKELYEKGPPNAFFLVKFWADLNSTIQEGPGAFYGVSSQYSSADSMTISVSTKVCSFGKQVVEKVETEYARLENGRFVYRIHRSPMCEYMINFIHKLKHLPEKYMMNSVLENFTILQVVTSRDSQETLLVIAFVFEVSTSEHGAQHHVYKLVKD
Protocol: as §1

TEAD4 = TEAD4 (Homo sapiens, UniProt Q15561); experiment: Palmitoylation assay, TEAD4 (HEK293T cells); parameters: unspecified tag; expressed in transfected cells; host or cells: HEK293T; details: 3 um compound, 24 hours
TEAD4, sequence (Q15561 whole entry): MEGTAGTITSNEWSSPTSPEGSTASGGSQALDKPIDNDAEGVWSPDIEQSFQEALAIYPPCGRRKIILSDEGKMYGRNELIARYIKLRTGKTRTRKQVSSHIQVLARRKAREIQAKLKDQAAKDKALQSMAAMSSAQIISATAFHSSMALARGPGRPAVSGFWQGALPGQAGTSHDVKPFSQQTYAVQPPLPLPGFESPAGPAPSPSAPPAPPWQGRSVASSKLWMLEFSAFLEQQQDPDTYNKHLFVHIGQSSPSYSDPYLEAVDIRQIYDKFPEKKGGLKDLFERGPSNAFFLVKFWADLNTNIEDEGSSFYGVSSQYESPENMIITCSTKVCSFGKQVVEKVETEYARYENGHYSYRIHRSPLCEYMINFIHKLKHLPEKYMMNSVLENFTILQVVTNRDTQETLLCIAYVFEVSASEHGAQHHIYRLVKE
Protocol: as §1

SMILES | CPA H2052 Max Inh Ave (H2052 cells) | IC50 (H2052 cells) [µM] | IC50 (NCI-H226 cells) [µM] | CPA NCI-H226 Max Inh Ave (NCI-H226 cells) | IC50 (TEAD1 [1]) [µM] | TEAD1-Luc MCF7: Max Inhibition (TEAD1 [1]) | TEAD2 Inh (palmitoylation) (TEAD2) [%] | TEAD1 Inh (palmitoylation) (TEAD1 [2]) [%] | TEAD3 Inh (palmitoylation) (TEAD3) [%] | TEAD4 Inh (palmitoylation) (TEAD4) [%]
C=CC(=O)N1CC[C@](C#Cc2ccc(C(F)(F)F)cc2)(OC)C1 (single isomer, unassigned) [Example 59, (R*)-1-(3-methoxy-3-((4-(trifluoromethyl)phenyl)ethynyl)pyrrolidin-1-yl)prop-2-en-1-one] | B (75% > B ≥ 50%) | 0.1 to 0.5 | ≤ 0.1 | A (A ≥ 75%) | 0.01 to 0.1 | A (A ≥ 75%) |  |  |  | 
C=CC(=O)N1CC[C@](C)(C#Cc2ccc(C(F)(F)F)cc2)C1 (single isomer, unassigned) [Example 60, 1-[(3R*)-3-methyl-3-{2-[4-(trifluoromethyl)phenyl]ethynyl}pyrrolidin-1-yl]prop-2-en-1-one] | A (A ≥ 75%) | ≤ 0.1 | ≤ 0.1 | A (A ≥ 75%) | 0.01 to 0.1 | A (A ≥ 75%) |  |  |  | 
C=CC(=O)N1CC[C@@](C)(C#Cc2ccc(C(F)(F)F)cc2)C1 (single isomer, unassigned) [Example 61, 1-[(3S*)-3-methyl-3-{2-[4-(trifluoromethyl)phenyl]ethynyl}pyrrolidin-1-yl]prop-2-en-1-one] | A (A ≥ 75%) | ≤ 0.1 | ≤ 0.1 | B (75% > B ≥ 50%) | 0.01 to 0.1 | A (A ≥ 75%) |  |  |  | 
C=CC(=O)N1CC[C@@H](C#Cc2ccc(C(F)(F)F)cc2)C1 (single isomer, unassigned) [Example 67, (S*)-1-(3-((4-(trifluoromethyl)phenyl)ethynyl)pyrrolidin-1-yl)prop-2-en-1-one] | A (A ≥ 75%) | ≤ 0.1 | ≤ 0.1 | A (A ≥ 75%) | ≤ 0.01 | A (A ≥ 75%) |  |  |  | 
C=CC(=O)N1C[C@@H](C)[C@H](/C=C/c2ccc(C(F)(F)F)cc2)C1 (stereo in doubt) [Example 39, 1-((3S*,4S*)-3-methyl-4-((E)-4-(trifluoromethyl)styryl)pyrrolidin-1-yl)prop-2-en-1-one] |  |  |  |  | 0.01 to 0.1 | A (A ≥ 75%) | 32 | 89 | 90 | 18
C=CC(=O)N1CC(C/C=C\c2cc(C(F)(F)F)on2)C1 [Example 1, 1-{3-[(2Z)-3-[5-(trifluoromethyl)-1,2-oxazol-3-yl]prop-2-en-1-yl]azetidin-1-yl}prop-2-en-1-one] | B (75% > B ≥ 50%) | ≤ 0.1 | 0.1 to 0.5 | B (75% > B ≥ 50%) | ≤ 0.01 | A (A ≥ 75%) |  |  |  | 
C=CC(=O)N1CC[C@@H](/C=C/c2ccc(C(F)(F)F)cc2)C1 [Example 9] |  | 0.1 to 0.5 |  |  | 0.01 to 0.1 |  |  |  |  | 
C=CC(=O)N1CC(/C=C/c2ccc(C(F)(F)F)cn2)C1 [Example 11, 1-(3-(2-(5-(trifluoromethyl)pyridin-2-yl)vinyl)azetidin-1-yl)prop-2-en-1-one] | A (A ≥ 75%) | ≤ 0.1 | 0.1 to 0.5 | A (A ≥ 75%) | ≤ 0.01 | A (A ≥ 75%) |  |  |  | 
C=CC(=O)N1CC(/C=C\c2cnc(C(F)(F)F)s2)C1 [Example 12] |  | 0.1 to 0.5 |  |  | 0.01 to 0.1 |  |  |  |  | 
C=CC(=O)N1CC(/C=C/c2cnc(C(F)(F)F)s2)C1 [Example 13, 1-{3-[(E)-2-[2-(trifluoromethyl)-1,3-thiazol-5-yl]ethenyl]azetidin-1-yl}prop-2-en-1-one] | B (75% > B ≥ 50%) | ≤ 0.1 | ≤ 0.1 | B (75% > B ≥ 50%) | ≤ 0.01 | A (A ≥ 75%) |  |  |  | 
C=CC(=O)N1CC(/C=C/c2cccc(C(F)(F)F)c2)C1 [Example 14] | B (75% > B ≥ 50%) | 0.1 to 0.5 |  |  | 0.01 to 0.1 | B (75% > B ≥ 50%) |  |  |  | 
C=CC(=O)N1CC(/C=C/c2cc(C(F)(F)F)on2)C1 [Example 21, (E)-1-(3-(2-(5-(trifluoromethyl)isoxazol-3-yl)vinyl)azetidin-1-yl)prop-2-en-1-one] | B (75% > B ≥ 50%) | ≤ 0.1 | 0.1 to 0.5 | A (A ≥ 75%) | ≤ 0.01 | A (A ≥ 75%) | 70 | 96 | 96 | 33
C=CC(=O)N1CC(C#N)(/C=C/c2cc(C(F)(F)F)on2)C1 [Example 34, 1-acryloyl-3-(2-(5-(trifluoromethyl)isoxazol-3-yl)vinyl)azetidine-3-carbonitrile] | A (A ≥ 75%) | ≤ 0.1 | 0.1 to 0.5 | A (A ≥ 75%) | 0.01 to 0.1 | A (A ≥ 75%) |  |  |  | 
C=CC(=O)N1CC(/C=C/c2ccc(C(F)(F)F)cc2)C(OC)C1 (stereo not drawn) [Example 36, 1-(3-methoxy-4-(4-(trifluoromethyl)styryl)pyrrolidin-1-yl)prop-2-en-1-one] | B (75% > B ≥ 50%) | ≤ 0.1 | 0.1 to 0.5 | B (75% > B ≥ 50%) | 0.01 to 0.1 | A (A ≥ 75%) |  |  |  | 
C#Cc1cc(/C=C/C2CN(C(=O)C=C)C2)ccc1C(F)(F)F [Example 45, (E)-1-(3-(3-ethynyl-4-(trifluoromethyl)styryl)azetidin-1-yl)prop-2-en-1-one] | B (75% > B ≥ 50%) | 0.1 to 0.5 | 0.1 to 0.5 | B (75% > B ≥ 50%) | 0.01 to 0.1 | A (A ≥ 75%) |  |  |  | 

Reference: US20260347319A1, “YAP/TAZ-TEAD ONCOPROTEINS INHIBITORS” (BridGene Biosciences, Inc., priority 2022, published 2026)
